This note sets out measurements from patent publication US4837224A, “(R)-alpha-ethyl-2-oxo-1-pyrrolidineacetamide compositions” (UCB Societe Anonyme, priority 1984, dated 1989).

Series [1] deals with amnesia-inducing effect of an electric shock. Kind of series: Mnemic activity: antagonism of the amnesia-inducing effect of an electric shock. The format is in vivo, rat (female Wistar). As to conditions: for minimal effective dose: sc, rat, subcutaneous, 5 minutes after the end of the learning session, retention measured 24 hours after the learning session, read-out: Active dose (minimum active dose reestablishing a normal threshold of between 8 to 11 graduations); for mnemic activity relative to the racemate: times more active than the racemate (compound A). From the text: The principle of the test is as follows:
The reaction of withdrawal of a rat's paw when subjected to an increasing and measured pressure is observed. The pressure at which the withdrawal reaction takes place is referred to as the "reaction threshold". This threshold is expressed by the number of graduations read diectly from the scale of the apparatus used (analgesia-meter UGO BASILE Milan) and thus corresponds to the minimum pressure which, applied to the paw of the animals, causes the paw to be withdrawn (learning session). Three measurements are carried out at intervals of 30 minutes.
When tested 24 hours after the end of the learning session, control animal show a natural retention of the previous test, which corresponds to a threshold of the order of 8 to 11 graduations.
The amnesia-inducing effect is produced by applying a trans-temporal supramaximal electric shock (100 mA, 120 Volts, 0.2 sec.) to the rats 15 minute after the end of the learning session. This amnesia-inducing effect due to the electric shock induces, when measuring the retention 24 hours later, an increase of the avoidance threshold which now corresponds to that of naive animals (which have not undergone a learning session), that is to say a threshold of between 14 and 19 graduations.
For each compound to be tested the minimum active dose (in mg/kg) reestablishing a normal threshold of between 8 to 11 graduations 24 hours after the learning session in animals subjected to electric shock is determined.
The compounds to be tested are administered subcutaneously, as a 10% solution or suspension, to groups of 10 rats (female Wistar rats weighing 150 g) 5 minutes after the end of the learning session. At the same time, a control group of 10 rats is given only a 0.9% aqueous sodium chloride solution.

The test system of a further series is male mouse. Kind of series: Toxicity: LD 50 after intravenous administration in the male mouse. The format is in vivo. From the text: (§1) The following table gives, for compounds A and B, the LD 50 in mg/kg determined on the male mouse and the male rat after intravenous administration
Test in series [2]: as above
The format is in vivo. As to conditions: in vivo; male mouse, intravenous.
Excerpt: as §1

A short description of series [3]: Toxicity: LD 50 after intravenous administration in the male rat. As to conditions: in vivo.
Excerpt: as §1

Each structure is given as a SMILES string.

For `CCC(C(N)=O)N1CCCC1=O` (racemic) [compound A, alpha-ethyl-2-oxo-1-pyrrolidineacetamide], the minimal effective dose in series [1] is 1.7 mg/kg.

Usually LD50 stands for the dose at which mortality reaches 50%. Lower therefore signals a more toxic substance. For the molecule `CC[C@H](C(N)=O)N1CCCC1=O` [compound B, (R)-alpha-ethyl-2-oxo-1-pyrrolidineacetamide], the “toxicity relative to the racemate” value in the series with male mouse (times lower toxicity than the racemic form, based on LD 50 in mouse and rat) amounted to 3 times. Also, in the series on male mouse (versus racemate (product A), LD 50 mouse and rat, intravenous), the “toxicity relative to the racemate (in words)” value is reported as “three times less toxic”. The values for the LD50 in series [2] and in series [3] were 5600 mg/kg and 5000 mg/kg, respectively. The minimal effective dose in series [1] came to 0.17 mg/kg. Moreover, the “mnemic activity relative to the racemate” value in series [1] is on record as 10 times; in series [1] (listed as dextrorotatory enantiomer of alpha-ethyl-2-oxo-1-pyrrolidineacetamide), “about 10 times”.
